Measured values reported in patent US12630498B2 (Genzyme Corporation, priority 2019, dated 2026).

Target: T1, human Cystic Fibrosis Transmembrane Conductance Regulator (CFTR) harboring the ΔF508 mutation (Homo sapiens, UniProt P13569, DEL508-508)
T1 construct: expressed in transfected cells; host or cells: H441 carcinoma line (G418-selected)
Experiment: H441 cell ΔF508-CFTR-HRP cell surface assay (Emax and EC50)
Type: cell-based
Conditions: for Emax: NCI-H441, NA = Not active
Excerpt: Example 315: H441 Cell Emax and EC50 Two cell lines were used, the H441 carcinoma line and the CFHBE41o- (41o-) human bronchial epithelial line. Both cell lines expressed human Cystic Fibrosis Transmembrane Conductance Regulator (CFTR) harboring the ΔF508 mutation and with an in-frame fusion in CFTR extracellular loop 4 of Horse Radish Peroxidase (HRP) under control of the CMV promoter. In the presence of the HRP tag, ΔF508-CFTR transported to the cell surface was detectable upon addition of an HRP substrate (Luminata Forte). Both cell types were cultivated at 37° C. with CO2. […] For both cell types, the medium was changed every other day unless the culture was at low % confluence. Cells were used for the assays at 75% confluence. To a polypropylene (PP) 384-well plate, 15 pls DMSO was added to all wells in columns 1-22 and 24 (low Control). 15 μls of 260 μM VX809 (Lumacaftor), Selleckchem […], was added to column 23 wells (high Control). 15 pls of 10 mM test compound or VX809 (control) were added to wells of row A. Serial dilutions of Row A compound were performed 2×15 pls in rows A through 0 (15-point). A PP, 384-well plate containing the appropriate cell culture medium was prepared for each assay plate with 100 pls per well. For the doxycycline-induced 41o-cells, doxycycline for both the assay plate and the medium dilution plate was added at 0.0005 mg/ml to the medium. Both cell lines were plated for the assay at 30 pls per 384-well at 3.4×10 e^5 cells per ml ( 10K cells/well). H441 cells were plated on opaque, white, Corning plate 3704. 41o-cells were plated on collagen-coated opaque, white, Corning plate 356665. For 41o-cells, doxycycline was added to the medium. Using FX (Beckman) protocol, 10 pls diluted compound or medium was added per well to the Assay Plate as: 2 pls DMSO Dilution plate well was diluted in 100 pls of the Medium Dilution Plate well, mixed, and 10 pls was transferred to the Assay Plate. The final assay dilution series was 24.5, 12.3, 6.1, 3.1, 1.5, 0.8, 0.4, 0.2, 0.1, 0.05, 0.02, 0.01, 0.006, 0.003, 0.001 and 0 μM. The 41o-assay plates were incubated at 37° C. w/CO2, the H441 assay plates were incubated at 27° C. w/CO2, each overnight for two nights. After being brought to room temperature, the assay plate liquid was removed. 30 uls of Luminata Forte (Millipore ELLUF0100) was added per well and incubated at room temperature for 10 min. The plates were then read on a Topcount, protocol LumiMatti (CPS, luminescence). The data was analyzed for % of maximum, maximum VX809 signal, and EC50 using Pearl and SPEED tools.

T1 sequence (P13569 with tags, fused parts or gaps DEL508-508): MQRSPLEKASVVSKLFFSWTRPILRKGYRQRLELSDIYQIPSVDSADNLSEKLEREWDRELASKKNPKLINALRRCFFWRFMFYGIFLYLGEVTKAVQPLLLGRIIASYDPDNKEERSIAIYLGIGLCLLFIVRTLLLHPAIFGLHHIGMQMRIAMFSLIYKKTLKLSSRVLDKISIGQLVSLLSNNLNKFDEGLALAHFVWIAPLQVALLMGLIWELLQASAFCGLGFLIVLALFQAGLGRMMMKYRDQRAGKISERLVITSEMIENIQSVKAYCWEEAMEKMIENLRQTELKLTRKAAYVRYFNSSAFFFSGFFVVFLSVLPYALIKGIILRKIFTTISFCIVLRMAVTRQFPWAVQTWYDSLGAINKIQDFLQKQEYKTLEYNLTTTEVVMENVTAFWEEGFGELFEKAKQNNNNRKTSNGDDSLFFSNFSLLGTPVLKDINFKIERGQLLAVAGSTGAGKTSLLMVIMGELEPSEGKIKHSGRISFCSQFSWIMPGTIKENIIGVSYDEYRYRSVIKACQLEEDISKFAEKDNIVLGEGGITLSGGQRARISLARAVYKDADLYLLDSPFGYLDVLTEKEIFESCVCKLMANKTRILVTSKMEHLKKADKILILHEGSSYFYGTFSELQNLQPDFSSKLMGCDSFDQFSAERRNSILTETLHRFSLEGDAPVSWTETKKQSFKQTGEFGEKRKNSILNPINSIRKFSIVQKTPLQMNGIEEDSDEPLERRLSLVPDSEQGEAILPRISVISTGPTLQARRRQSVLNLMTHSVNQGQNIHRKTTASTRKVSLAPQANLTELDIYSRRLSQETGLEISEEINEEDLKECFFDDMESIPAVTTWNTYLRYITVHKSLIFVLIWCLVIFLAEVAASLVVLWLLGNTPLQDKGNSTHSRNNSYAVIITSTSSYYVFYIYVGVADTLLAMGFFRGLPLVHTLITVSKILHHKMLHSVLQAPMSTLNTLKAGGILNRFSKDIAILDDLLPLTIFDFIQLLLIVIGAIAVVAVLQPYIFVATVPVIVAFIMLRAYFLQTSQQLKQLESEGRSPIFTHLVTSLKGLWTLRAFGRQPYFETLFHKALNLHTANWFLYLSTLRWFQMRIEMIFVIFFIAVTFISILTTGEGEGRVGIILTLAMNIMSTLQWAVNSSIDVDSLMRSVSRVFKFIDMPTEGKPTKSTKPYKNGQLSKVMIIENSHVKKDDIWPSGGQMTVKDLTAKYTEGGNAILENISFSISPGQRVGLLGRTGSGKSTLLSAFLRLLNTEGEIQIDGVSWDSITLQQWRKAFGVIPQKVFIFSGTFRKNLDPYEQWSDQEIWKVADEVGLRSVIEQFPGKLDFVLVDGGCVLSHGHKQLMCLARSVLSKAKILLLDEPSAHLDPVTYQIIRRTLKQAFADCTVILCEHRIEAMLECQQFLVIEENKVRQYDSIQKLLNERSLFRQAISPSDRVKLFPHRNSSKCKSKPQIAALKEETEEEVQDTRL

SMILES	EC50 [µM]	Emax [%]
C[C@@H](OCc1ccccc1)C(NC(=O)c1ccc2ccccc2c1OCC1CC2CCC1C2)C(=O)O (stereo partly drawn) [Example 147, (3R)-3-(benzyloxy)-2-(1-(bicyclo[2.2.1]heptan-2-ylmethoxy)-2-naphthamido)butanoic Acid]	16.8	68.9
CC(C)(C)[C@H](NC(=O)c1ccc2ccccc2c1OCC1CCC(CO)CC1)C(=O)O (stereo partly drawn) [Example 29, (S)-2-(1-((4-(hydroxymethyl)cyclohexyl)methoxy)-2-naphthamido)-3,3-dimethylbutanoic Acid]	–	27.8
CC(C)(C)[C@H](NC(=O)c1ccc2ccccc2c1OCC1(C(F)(F)F)CC1)C(=O)O [Example 268, (2S)-3,3-dimethyl-2-[[1-[[1-(trifluoromethyl)cyclopropyl]methoxy]naphthalene-2-carbonyl]amino]butanoic Acid]	15.4	74
CC(OCc1ccccc1)[C@H](NC(=O)c1ccc2cc(F)ccc2c1OCc1nc2ccccc2s1)C(=O)O (stereo in doubt) [Example 215, N-(1-(benzo[d]thiazol-2-ylmethoxy)-6-fluoro-2-naphthoyl)-O-benzyl-L-allothreonine]	5.7	89.9
COc1ccc2c(OCc3ccc(C(F)(F)F)cc3)c(C(=O)N[C@H](C(=O)O)C(C)(C)C)ccc2c1 [Example 38, (S)-2-(6-methoxy-1-((4-(trifluoromethyl)benzyl)oxy)-2-naphthamido)-3,3-dimethylbutanoic Acid]	1.1	80.8
CC(Oc1c(C(=O)N[C@@H](Cc2ccccc2)C(=O)O)ccc2ccccc12)c1ccc(C(F)(F)F)cc1 (stereo partly drawn) [Example 124, (1-(1-(4-(trifluoromethyl)phenyl)ethoxy)-2-naphthoyl)-L-phenylalanine]	1.3	10.5
CC1([C@H](NC(=O)c2ccc3cc(F)ccc3c2OCc2ccc(OC(F)(F)F)cc2)C(=O)O)CC1 [Example 30, (S)-2-(6-fluoro-1-((4-(trifluoromethoxy)benzyl)oxy)-2-naphthamido)-2-(1-methylcyclopropyl)acetic Acid]	2	57.5
CC(Oc1c(C(=O)N[C@@H](Cc2ccccc2)C(=O)O)ccc2ccccc12)c1ccc(Br)cc1 (stereo partly drawn) [Example 123, (1-(1-(4-bromophenyl)ethoxy)-2-naphthoyl)-L-phenylalanine]	–	4
CC(C)(C)[C@H](NC(=O)c1ccc2ccccc2c1OCc1ccncc1)C(=O)O [Example 232, (2S)-3,3-dimethyl-2-[[1-(4-pyridylmethoxy)naphthalene-2-carbonyl]amino]butanoic Acid]	3.1	8.5
O=C(NC(C(=O)O)C(C(F)(F)F)C(F)(F)F)c1ccc2ccccc2c1OCC1CCCCC1 (centres unmarked) [Example 183, 2-(1-(cyclohexylmethoxy)-2-naphthamido)-4,4,4-trifluoro-3-(trifluoromethyl)butanoic Acid]	3.2	63.9
O=C(NC(C(=O)O)C(C(F)(F)F)C(F)(F)F)c1ccc2ccccc2c1OCc1ccc(C(F)(F)F)cc1 (centres unmarked) [Example 181, 4,4,4-trifluoro-3-(trifluoromethyl)-2-(1-((4-(trifluoromethyl)benzyl)oxy)-2-naphthamido)butanoic Acid]	13.7	93.2
CCC(C)(C)[C@H](NC(=O)c1ccc2cc(OC)ccc2c1OCc1ccc(SC(F)(F)F)cc1)C(=O)O [Example 32, (S)-2-(6-methoxy-1-((4-((trifluoromethyl)thio)benzyl)oxy)-2-naphthamido)-3,3-dimethylpentanoic Acid]	1.5	44.3
C[C@@H](OCc1ccccc1)C(NC(=O)c1ccc2ccccc2c1OCc1ccc(C(F)(F)F)cc1)C(=O)O (stereo partly drawn) [Example 144, (3R)-3-(benzyloxy)-2-(1-((4-(trifluoromethyl)benzyl)oxy)-2-naphthamido)butanoic Acid]	4.5	140
O=C(N[C@@H](Cc1ccccc1)C(=O)O)c1ccc2ccccc2c1OCc1ccc([N+](=O)[O-])cc1 [Example 91, (1-((4-nitrobenzyl)oxy)-2-naphthoyl)-L-phenylalanine]	16.4	44.3
CC(C)(C)C[C@H](NC(=O)c1ccc2ccccc2c1OCc1ccc(OC(F)F)cc1)C(=O)O [Example 108, (S)-2-(1-((4-(difluoromethoxy)benzyl)oxy)-2-naphthamido)-4,4-dimethylpentanoic Acid]	–	4.7
O=C(N[C@H](C(=O)O)C12CC(C(F)(F)F)(C1)C2)c1ccc2cc(F)ccc2c1OCc1ccc(OC(F)(F)F)cc1 [Example 4, (S)-2-(6-fluoro-1-((4-(trifluoromethoxy)benzyl)oxy)-2-naphthamido)-2-(3-(trifluoromethyl)bicyclo[1.1.1]pentan-1-yl)acetic Acid]	0.7	37.2
COc1ccc2c(OCc3ccc(SC(F)(F)F)cc3)c(C(=O)N[C@H](C(=O)O)C3CCCC3)ccc2c1 [Example 162, (S)-2-cyclopentyl-2-(6-methoxy-1-((4-((trifluoromethyl)thio)benzyl)oxy)-2-naphthamido)acetic Acid]	1.6	26
C[C@@H](OCc1ccccc1)C(NC(=O)c1ccc2ccccc2c1OCC1CCC(CO)CC1)C(=O)O (stereo partly drawn) [Example 146, (3R)-3-(benzyloxy)-2-(1-((4-(hydroxymethyl)cyclohexyl)methoxy)-2-naphthamido)butanoic Acid]	17.4	62.2
C[C@@H](OCc1ccccc1)C(NC(=O)c1ccc2ccccc2c1OCc1nc2ccccc2s1)C(=O)O (stereo partly drawn) [Example 148, (3R)-2-(1-(benzo[d]thiazol-2-ylmethoxy)-2-naphthamido)-3-(benzyloxy)butanoic Acid]	18.3	65.2
N#Cc1ccc(C[C@H](NC(=O)c2ccc3ccccc3c2OCc2ccc(C(F)(F)F)cc2)C(=O)O)cc1 [Example 107, (S)-3-(4-cyanophenyl)-2-(1-((4-(trifluoromethyl)benzyl)oxy)-2-naphthamido)propanoic Acid]	10.9	63.4
CCC(C)(C)[C@H](NC(=O)c1ccc2c(F)cc(C)cc2c1OCc1ccc(C(F)(F)F)cc1)C(=O)O [Example 272, (2S)-2-[[5-fluoro-7-methyl-1-[[4-(trifluoromethyl)phenyl]methoxy]-naphthalene-2-carbonyl]amino]-3,3-dimethyl-pentanoic Acid]	0.2	392
CC(C)(C)C[C@H](NC(=O)c1ccc2ccccc2c1OC[C@H]1CC[C@@H](C(F)(F)F)CC1)C(=O)O [Example 180, (S)-4,4-dimethyl-2-(1-(((1s,4R)-4-(trifluoromethyl)cyclohexyl)methoxy)-2-naphthamido)pentanoic Acid]	10	70.7
CC(OCc1ccccc1)[C@H](NC(=O)c1ccc2cc(F)ccc2c1OCc1ccc(OC(F)(F)F)cc1)C(=O)O (stereo in doubt) [Example 192, O-benzyl-N-(6-fluoro-1-((4-(trifluoromethoxy)benzyl)oxy)-2-naphthoyl)-L-allothreonine]	–	10.6
COc1ccc2c(OCc3ccc(C(F)(F)F)cc3)c(C(=O)N[C@H](C(=O)O)C3CCCC3)ccc2c1 [Example 160, (S)-2-cyclopentyl-2-(6-methoxy-1-((4-(trifluoromethyl)benzyl)oxy)-2-naphthamido)acetic Acid]	3.3	47.2
CC(C)(SC1CCCC1)[C@H](NC(=O)c1ccc2ccccc2c1OCc1ccc(S(C)(=O)=O)cc1)C(=O)O [Example 171]	–	16.4
NC12CCC(C(NC(=O)c3ccc4cc(F)ccc4c3OCc3ccc(C(F)(F)F)cc3)C(=O)O)(CC1)CC2 (centres unmarked) [Example 185, 2-(4-aminobicyclo[2.2.2]octan-1-yl)-2-(6-fluoro-1-((4-(trifluoromethyl)benzyl)oxy)-2-naphthamido)acetic Acid]	–	14
CC(C)(C)[C@H](NC(=O)c1ccc2ccccc2c1OCc1ccc(OC(F)(F)F)cc1)C(=O)O [Example 65, (S)-3,3-dimethyl-2-(1-((4-(trifluoromethoxy)benzyl)oxy)-2-naphthamido)butanoic Acid]	4.4	8.7
CC(C)(C)C[C@H](NC(=O)c1ccc2cc(F)ccc2c1OCC1CCC(F)(F)CC1)C(=O)O [Example 109, (S)-2-(1-((4,4-difluorocyclohexyl)methoxy)-6-fluoro-2-naphthamido)-4,4-dimethylpentanoic Acid]	14.2	52.7
